“And” between values parts separate entries of the source, which are not always exact repeats. Identical values can stand only once.
Legend:
MtUPRT [1] = target: T1, MtUPRT (Mycobacterium tuberculosis, UniProt P9WFF3); test: Steady-state kinetics of MtUPRT, continuous spectrophotometric assay (uracil to UMP, 280 nm); assay type: biochemical; conditions: for k cat/K (true steady-state) / true steady-state K (K PRPP, K uracil): initial velocity pattern, varying PRPP at fixed-varying uracil; for true steady-state K (K PRPP, K uracil): sequential mechanism fit
MtUPRT [2] = target: T1, MtUPRT; test: Evaluation of pyrimidine bases as substrates, discontinuous assay (HPLC, LC-ESI-MS/MS); assay type: biochemical; conditions: 0.1 mM base, 1 mM PRPP, 37°C 30 min, confirmed by LC-ESI-MS/MS
Method: Uracil, thymine and cytosine pyrimidine bases were evaluated as possible MtUPRT substrates. The bases were added to MtUPRT reaction mixtures and protein separated by ultrafiltration, and product formation analyzed by HPLC monitoring absorbance at 254, 260, and 280 nm. […] The MtUPRT enzyme activity measurements henceforth described were carried out using uracil as substrate and a continuous spectrophotometric assay.
Reaction mixtures containing 50 mM Tris pH 7.8, 10 mM MgCl2, 1 mM PRPP, and 0.1 mM of the pyrimidine base to be tested (uracil, cytosine, or thymine) were initiated by the addition of 54 nM of homogeneous MtUPRT. The reactions were incubated at 37°C for 30 min and then boiled for 3 min to stop the reaction. The mixtures were passed through a Centricon (10,000 Da molecular weight cut off) to remove the protein content prior to analysis. The nucleotide contents of the samples were analyzed using an HPLC Äkta Purifier system and a Sephasil peptide C18 5 µm ST 4.6/250 column. A 500 µL aliquot of each sample was loaded on the column and adsorbed material isocratically eluted with 5 mM potassium phosphate pH 4.0 containing 5% acetonitrile for 10 min at 1 mL min^−1flow rate. Nucleotides and bases were monitored at 254, 260, and 280 nm.
Another method used to analyze the nucleotide content was the LC-ESI-MS/MS. This experiment was employed to confirm results obtained in the analysis described above. The chromatography was carried out with an Eclipse plus C18 4.6/150 column (Agilent). The injected sample volume was 20 µL, which was eluted isocratically with 10 mM ammonium acetate containing 40% acetonitrile at 0.8 ml min^−1 flow rate. The LC detector was an ESI coupled to the 3200 Q-Trap (Applied Biosystems MDS SCIEX), employing the ESI-MS/MS parameters as described by others. During the chromatography run, precursor ion scan (Prec) and enhance product ion scan (EPI) were monitored. Prec monitored precursors of mass over charge ratio (m/z) of compounds containing a phosphate group (H2PO4 ^−, m/z 97) and EPI gave the fragmentation spectra of the nucleotides m/z.

MtUPRT [3] = target: T1, MtUPRT; test: biochemical; assay type: binding; conditions: for Kd: K d; for ΔG / ΔH / ΔS: reverse titration, 25°C
B. caldolyticus UPRT = test system: B. caldolyticus UPRT; set-up: method as in PMID 9268683; conditions: hyperbolic saturation curve; cited from earlier work
MtUPRT [4] = target: T1, MtUPRT; test: Evaluation of nucleotides as allosteric effectors; assay type: biochemical; conditions: for activation or inhibition of MtUPRT: 500 µM nucleotide, 128 s
S. solfataricus UPRT = test system: S. solfataricus UPRT; set-up: method as in PMID 15752360; conditions: cited from earlier work
[5] = target: MtUPRT:PRPP binary complex (Mycobacterium tuberculosis, UniProt P9WFF3); test: Isothermal titration calorimetry of GTP binding to PRPP bound enzyme; conditions: 10 mM GTP titrated; MtUPRT 139 µM incubated with 100 µM PRPP for 1 hour
Method: Furthermore, no binding of GTP either to the free enzyme or to the PRPP bound enzyme was detected by ITC (data not shown). The incubation of PRPP with MtUPRT prior to the titration of GTP was tested to determine whether the binding of PRPP to MtUPRT generates conformational changes on the enzyme that could enable GTP binding. However, no binding of GTP to MtUPRT:PRPP binary complex could be detected (data now shown).
ITC experiments were carried out using an iTC200 Microcalorimeter (MicroCal Inc). Ligands and enzyme were prepared in 100 mM Hepes pH 7.5 containing 10 mM MgCl2. For direct titrations the sample cell was filled with 139 µM of MtUPRT (200 µL) and titrated (39.7 µL) with different concentrations of either substrates or products: 200 µM of uracil, 500 µM of PRPP, 500 µM of UMP, and 350 µM of PPi. In addition, titration was performed with 10 mM of GTP and the sample cell was filled with either free MtUPRT (139 µM) or MtUPRT (139 µM) incubated with 100 µM PRPP for 1 hour before starting the measurements. Reverse titrations were also carried out where the sample cell was filled with either 90 µM of PRPP or 150 µM of UMP and titrated with 633 µM of UPRT.
A stirring speed of 500 rpm and a temperature of 25°C were employed for all ITC experiments. […] The experimental data were evaluated using the Origin 7 SR4 software (MicroCal).

E. coli UPRT = test system: E. coli UPRT; set-up: method as in PMID 8856065; conditions: without affecting V max; cited from earlier work
G. intestinalis UPRT = test system: G. intestinalis UPRT; set-up: method as in PMID 7622327; conditions: cited from earlier work
UPRT from T. gondii = test system: UPRT from T. gondii; set-up: method as in PMID 11773618; conditions: also stabilizes the more active tetrameric form; cited from earlier work
AUC = target: the molecule itself; test: AUC
[6] = in the presence of 100 µM GTP, uracil variable substrate, PRPP 350 µM
[7] = uracil variable substrate, fixed-saturating PRPP 350 µM
[8] = PRPP variable substrate, fixed-saturating uracil 35 µM
[9] = in the presence of 100 µM GTP, PRPP variable substrate, uracil 35 µM

Molecule: O=c1cc[nH]c(=O)[nH]1 [uracil]
- K 0.5 (MtUPRT [1]; [6]): 2.9 ± 0.1 µM
- apparent V max (MtUPRT [1]; [6]): 1.54±0.02 U mg^−1
- apparent k cat (MtUPRT [1]; [6]): 0.57 ± 0.01 s⁻¹
- n (Hill coefficient) (MtUPRT [1]; [6]): 2.2±0.1
- k cat/K (true steady-state) (MtUPRT [1]): 2.2 (±0.3)×10^5 M^−1 s^−1
- true steady-state K (K PRPP, K uracil) (MtUPRT [1]): 2.6 ± 0.4 µM
- apparent V max (MtUPRT [1]; [7]): 1.73±0.03 U mg^−1
- apparent k cat (MtUPRT [1]; [7]): 0.64 ± 0.01 s⁻¹
- n (Hill coefficient) (MtUPRT [1]; [7]): 1.9±0.1
- K 0.5 (MtUPRT [1]; uracil variable substrate, fixed-saturating PRPP 350 µM, Hill fit): 3.6 ± 0.1 µM
- substrate activity (product formation) (MtUPRT [2]): specific for uracil
- binding to free MtUPRT enzyme (heat changes) (MtUPRT [3]): no significant heat changes
- K M for uracil (B. caldolyticus UPRT): 2 µM

Molecule: O=P(O)(O)OP(=O)(O)O [PPi, pyrophosphate]
- binding to free MtUPRT enzyme (heat changes) (MtUPRT [3]): no significant heat changes

Molecule: Nc1ncnc2c1ncn2[C@@H]1O[C@H](COP(=O)(O)OP(=O)(O)OP(=O)(O)O)[C@@H](O)[C@H]1O [ATP, adenosine 5′-triphosphate]
- activation or inhibition of MtUPRT (MtUPRT [4]; 350 µM PRPP, 35 µM uracil): not significantly activated or inhibited

Molecule: O=c1ccn([C@@H]2O[C@H](COP(=O)(O)O)[C@@H](O)[C@H]2O)c(=O)[nH]1 [UMP, uridine 5′-monophosphate]
- inhibition of MtUPRT (MtUPRT [4]; 100 µM UMP, 350 µM PRPP, 35 µM uracil): enzyme inhibition was observed
- Kd (MtUPRT [3]): 7 µM and 8 µM and 13 µM and 14 µM
- ΔG (MtUPRT [3]; Subunit 1): -7 ± 2 kcal/mol
- ΔH (MtUPRT [3]; Subunit 1): -5.1 ± 0.4 kcal/mol
- ΔS (MtUPRT [3]; Subunit 1): 5±1 cal mol^−1 deg^−1
- ΔG (MtUPRT [3]; Subunit 2): -7 ± 2 kcal/mol
- ΔH (MtUPRT [3]; Subunit 2): 6 ± 3 kcal/mol
- ΔS (MtUPRT [3]; Subunit 2): 45±16 cal mol^−1 deg^−1
- ΔG (MtUPRT [3]; Subunit 3): -7 ± 3 kcal/mol
- ΔH (MtUPRT [3]; Subunit 3): -24 ± 11 kcal/mol
- ΔS (MtUPRT [3]; Subunit 3): −56±21 cal mol^−1 deg^−1
- ΔG (MtUPRT [3]; Subunit 4): -7 ± 2 kcal/mol
- ΔH (MtUPRT [3]; Subunit 4): 28 ± 18 kcal/mol
- ΔS (MtUPRT [3]; Subunit 4): 117±43 cal mol^−1 deg^−1

Molecule: O=P(O)(O)OC[C@H]1O[C@H](OP(=O)(O)OP(=O)(O)O)[C@H](O)[C@@H]1O [PRPP, 5-phosphoribosyl-α-1-pyrophosphate]
- apparent V max (MtUPRT [1]; [8]): 1.75±0.02 U mg^−1
- apparent k cat (MtUPRT [1]; [8]): 0.65 ± 0.01 s⁻¹
- apparent K M (MtUPRT [1]; PRPP variable substrate, fixed-saturating uracil 35 µM, Michaelis-Menten fit): 12.4 ± 0.6 µM
- apparent K M (MtUPRT [1]; [9]): 17 ± 2 µM
- apparent V max (MtUPRT [1]; [9]): 1.60±0.04 U mg^−1
- apparent k cat (MtUPRT [1]; [9]): 0.59 ± 0.01 s⁻¹
- k cat/K (true steady-state) (MtUPRT [1]): 4.1 (±0.2)×10^4 M^−1 s^−1
- true steady-state K (K PRPP, K uracil) (MtUPRT [1]): 14 ± 1 µM
- Kd (MtUPRT [3]): 5 µM and 48 µM and 6 µM and 9 µM
- ΔG (MtUPRT [3]; Subunit 1): -7 ± 1 kcal/mol
- ΔH (MtUPRT [3]; Subunit 1): 2.8 ± 0.3 kcal/mol
- ΔS (MtUPRT [3]; Subunit 1): 34±6 cal mol^−1 deg^−1
- ΔG (MtUPRT [3]; Subunit 2): -6 ± 2 kcal/mol
- ΔH (MtUPRT [3]; Subunit 2): -3 ± 16 kcal/mol
- ΔS (MtUPRT [3]; Subunit 2): 10±3 cal mol^−1 deg^−1
- ΔG (MtUPRT [3]; Subunit 3): -7 ± 2 kcal/mol
- ΔH (MtUPRT [3]; Subunit 3): -41 ± 32 kcal/mol
- ΔS (MtUPRT [3]; Subunit 3): −114±33 cal mol^−1 deg^−1
- ΔG (MtUPRT [3]; Subunit 4): -7 ± 3 kcal/mol
- ΔH (MtUPRT [3]; Subunit 4): 58 ± 22 kcal/mol
- ΔS (MtUPRT [3]; Subunit 4): 217±85 cal mol^−1 deg^−1
- K a (MtUPRT [3]; pH 7.5): 2.0 (±3.6)×10^5 M^−1 and 2.1 (±0.6)×10^4 M^−1 and 1.6 (±0.5)×10^5 M^−1 and 1.1 (±0.4)×10^5 M^−1

Molecule: Nc1ccn([C@@H]2O[C@H](COP(=O)(O)OP(=O)(O)OP(=O)(O)O)[C@@H](O)[C@H]2O)c(=O)n1 [CTP, cytidine 5′-triphosphate]
- effect on UMP inhibition of MtUPRT (MtUPRT [4]; 500 µM CTP together with 100 µM UMP): no increase in UMP inhibition occurred
- activation or inhibition of MtUPRT (MtUPRT [4]; 350 µM PRPP, 35 µM uracil): not significantly activated or inhibited
- effect of CTP on activity (S. solfataricus UPRT; in the presence of UMP): inhibited the enzyme

Molecule: Cc1c[nH]c(=O)[nH]c1=O [thymine]
- substrate activity (product formation) (MtUPRT [2]): no product formation could be detected

Molecule: Nc1nc2c(ncn2[C@@H]2O[C@H](COP(=O)(O)OP(=O)(O)OP(=O)(O)O)[C@@H](O)[C@H]2O)c(=O)[nH]1 [GTP, guanosine 5′-triphosphate]
- effect on kinetic parameters for MtUPRT (MtUPRT [1]; 100 µM GTP): not affected
- activation or inhibition of MtUPRT (MtUPRT [4]; 350 µM PRPP, 35 µM uracil): not significantly activated or inhibited
- binding to free MtUPRT enzyme (heat changes) (MtUPRT [3]): no binding
- binding to MtUPRT:PRPP binary complex [5]: no binding
- effect of GTP on kinetic parameters (E. coli UPRT): lowered the K M value for PRPP
- effect of GTP on activity (G. intestinalis UPRT): dramatic increase in the activity
- effect of GTP on activity (UPRT from T. gondii): activated by GTP
- effect of GTP on k cat and K M for PRPP and uracil (S. solfataricus UPRT): increase k cat and K M values

Molecule: O=c1ccn([C@@H]2O[C@H](COP(=O)(O)OP(=O)(O)OP(=O)(O)O)[C@@H](O)[C@H]2O)c(=O)[nH]1 [UTP, uridine 5′-triphosphate]
- activation or inhibition of MtUPRT (MtUPRT [4]; 350 µM PRPP, 35 µM uracil): not significantly activated or inhibited

Molecule: Nc1cc[nH]c(=O)n1 [cytosine]
- substrate activity (product formation) (MtUPRT [2]): no product formation could be detected

B1: Uracil phosphoribosyltransferase from Mycobacterium tuberculosis (enzyme)
chain: MQVHVVDHPLAAARLTTLRDERTDNAGFRAALRELTLLLIYEATRDAPCEPVPIRTPLAETVGSRLTKPPLLVPVLRAGLGMVDEAHAALPEAHVGFVGVARDEQTHQPVPYLDSLPDDLTDVPVMVLDPMVATGGSMTHTLGLLISRGAADITVLCVVAAPEGIAALQKAAPNVRLFTAAIDEGLNEVAYIVPGLGDAGDRQFGPR
notes: also called MtUPRT; UPRT
- Kd (AUC): ~1 µM
- stoichiometry N (AUC): 4

Reference: PMC3570474, “Biochemical Characterization of Uracil Phosphoribosyltransferase from Mycobacterium tuberculosis” (PLoS ONE, 2013)
